Tested on: P388; call rule not given here
Assay: Cytotoxicity against mouse P388 cells at 12.5 ug/mL
Type: cell-based

For `Cc1cc(O)c(CO)c2c1C(=O)Oc1c(C)c3c(c(O)c1O2)C(=O)OC3` [EXCELSIONE], the Activity was “Not Active”.

From ChEMBL document CHEMBL1142059, “Excelsione, a depsidone from an endophytic fungus isolated from the New Zealand endemic tree Knightia excelsa” (J Nat Prod, 2007)
